Source: ChEMBL document CHEMBL1201862, “PubChem BioAssay data set” (2004)
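Following 48 hours of exposure in 96-well plates, responses at five concentrations were used to interpolate endpoints linearly. Abbreviation: GI50, concentration required for 50% inhibition of growth.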 Calls of active or inactive are those of the source. Rule as the data show it: active = GI50 up to about 1.1 µM and inactive = higher.

How the values were obtained:
Test in all cases: NCI anticancer screen, dose series, 48 h
SNB-75 = system: SNB-75
M14 = system: M14
SF-268 = system: SF-268
K562 = system: K562
HL-60 = system: HL-60
SK-MEL-5 = system: SK-MEL-5
NCI-H226 = system: NCI-H226
A498 = system: A498
HOP-92 = system: HOP-92
OVCAR-8 = system: OVCAR-8
A549 = system: A549
MCF7 = system: MCF7
HOP-62 = system: HOP-62
COLO 205 = system: COLO 205
OVCAR-3 = system: OVCAR-3
HCT-15 = system: HCT-15
TK-10 = system: TK-10
IGROV-1 = system: IGROV-1
SK-OV-3 = system: SK-OV-3
SF-539 = system: SF-539

| SMILES | GI50 (SNB-75) | GI50 (M14) | GI50 (SF-268) | GI50 (K562) | GI50 (HL-60) | GI50 (SK-MEL-5) | GI50 (NCI-H226) | GI50 (A498) | GI50 (HOP-92) | GI50 (OVCAR-8) | GI50 (A549) | GI50 (MCF7) | GI50 (HOP-62) | GI50 (COLO 205) | GI50 (OVCAR-3) | GI50 (HCT-15) [µM] | GI50 (TK-10) | GI50 (IGROV-1) | GI50 (SK-OV-3) | GI50 (SF-539) |
| --- | --- | --- | --- | --- | --- | --- | --- | --- | --- | --- | --- | --- | --- | --- | --- | --- | --- | --- | --- | --- |
| COC(=O)c1c(C)cccc1C1CN=NC12Cc1ccccc1C2=O (stereo not given) | 65.2 µM (inactive) | 20.1 µM (inactive) | > 53 µM (inactive) | 37.1 µM (inactive) | 36.9 µM (inactive) | 37.4 µM (inactive) | > 83.4 µM (inactive) | 98.6 µM (inactive) | > 57.7 µM (inactive) | > 100 µM (inactive) | > 82.6 µM (inactive) | 2.46 µM (inactive) | > 100 µM (inactive) | 60.8 µM (inactive) | 15.7 µM (inactive) | 78.3 | > 100 µM (inactive) | > 91.2 µM (inactive) | > 100 µM (inactive) | > 100 µM (inactive) |
| COc1ccc2[nH]c3c(C)c4ccnc(NCCCN(C)CCCNC(=O)NCCCN(C)CCCNc5nccc6c(C)c7[nH]c8ccc(OC)cc8c7c(C)c56)c4c(C)c3c2c1 | 0.402 µM (active) | 0.753 µM (active) | 0.551 µM (active) | 0.23 µM (active) | 0.147 µM (active) | 0.774 µM (active) | 0.526 µM (active) | 1.39 µM (inactive) | 0.406 µM (active) | 0.638 µM (active) | 0.249 µM (active) | 0.164 µM (active) | 0.419 µM (active) | 0.324 µM (active) | 1.29 µM (inactive) | 1.26 | 1.48 µM (inactive) | 0.476 µM (active) | 1.67 µM (inactive) | 0.314 µM (active) |
| O=C(O)c1cccc(S(=O)(=O)NN2C(=O)CSC2c2ccccc2)c1 (stereo not given) | > 100 µM (inactive) | > 100 µM (inactive) | > 100 µM (inactive) | > 100 µM (inactive) | 4.4 µM (inactive) | > 100 µM (inactive) | > 100 µM (inactive) | > 100 µM (inactive) | > 100 µM (inactive) | > 100 µM (inactive) | > 100 µM (inactive) | > 100 µM (inactive) | > 100 µM (inactive) | > 100 µM (inactive) | > 100 µM (inactive) | > 100 | > 100 µM (inactive) | > 100 µM (inactive) | > 100 µM (inactive) | > 100 µM (inactive) |
| O=C(NCCCCl)c1c(O)c2ccccc2[nH]c1=O | > 54.5 µM (inactive) | > 100 µM (inactive) | > 72.1 µM (inactive) | > 100 µM (inactive) | > 100 µM (inactive) | > 100 µM (inactive) | > 100 µM (inactive) | 32.4 µM (inactive) | > 43.3 µM (inactive) | > 100 µM (inactive) | > 100 µM (inactive) | > 91.8 µM (inactive) | > 50.6 µM (inactive) | > 100 µM (inactive) | > 100 µM (inactive) | > 100 | > 100 µM (inactive) | > 100 µM (inactive) | > 80.5 µM (inactive) | > 54 µM (inactive) |
| CCCCCCCCCCCCCCC(O)C[N+](C)(CCO)CCO (stereo not given) | 0.746 µM (active) | 1.59 µM (inactive) | 1.89 µM (inactive) | 4.24 µM (inactive) | 0.585 µM (active) | 4.06 µM (inactive) | 2.04 µM (inactive) | 4.99 µM (inactive) | 0.885 µM (active) | 4.11 µM (inactive) | 10.2 µM (inactive) | 12.6 µM (inactive) | 2.19 µM (inactive) | 1.72 µM (inactive) | 3.13 µM (inactive) | 5.96 | 1.39 µM (inactive) | 1.15 µM (inactive) | 12.9 µM (inactive) | 2.4 µM (inactive) |
| Cc1ccc(NC2=NCCO2)c2c1CCC2 | 32.9 µM (inactive) | 21 µM (inactive) | 41.8 µM (inactive) | 26.7 µM (inactive) | 16.7 µM (inactive) | 17.5 µM (inactive) | 32.4 µM (inactive) | 41.6 µM (inactive) | 27.3 µM (inactive) | 35.1 µM (inactive) | 41.7 µM (inactive) | 31.8 µM (inactive) | 27.9 µM (inactive) | 23.6 µM (inactive) | 21.6 µM (inactive) | 44.2 | > 100 µM (inactive) | 40 µM (inactive) | 41.5 µM (inactive) | 22 µM (inactive) |
| Cc1cccc(C2ON=C(c3ccccc3)N2C23CC4CC(CC(C4)C2)C3)c1 (stereo not given) | 7.28 µM (inactive) | > 10 µM (inactive) | > 10 µM (inactive) | > 10 µM (inactive) | > 10 µM (inactive) | > 10 µM (inactive) | > 10 µM (inactive) | > 10 µM (inactive) | > 10 µM (inactive) | > 10 µM (inactive) | > 10 µM (inactive) | 3.6 µM (inactive) | > 10 µM (inactive) | > 10 µM (inactive) | > 10 µM (inactive) | > 10 | > 10 µM (inactive) | > 10 µM (inactive) | > 10 µM (inactive) | > 10 µM (inactive) |
| Oc1ncnc2c1nnn2CCCCCCCCCCCCn1nnc2c(O)ncnc21 | > 40.9 µM (inactive) | > 100 µM (inactive) | 37.7 µM (inactive) | > 100 µM (inactive) | > 45.4 µM (inactive) | 19.8 µM (inactive) | 32.6 µM (inactive) | 25.2 µM (inactive) | 30 µM (inactive) | 41.5 µM (inactive) | 36.9 µM (inactive) | 98.6 µM (inactive) | 21.7 µM (inactive) | > 83.4 µM (inactive) | 40.5 µM (inactive) | > 100 | 24.4 µM (inactive) | 22.2 µM (inactive) | 17.7 µM (inactive) | 31.7 µM (inactive) |
| O=C(O)c1cc2ccccc2c(O)c1O | 17.9 µM (inactive) | 4.79 µM (inactive) | 17.2 µM (inactive) | 8.09 µM (inactive) | 19.4 µM (inactive) | 2.92 µM (inactive) | 13.7 µM (inactive) | 26.9 µM (inactive) | > 40.1 µM (inactive) | 12.6 µM (inactive) | 19.8 µM (inactive) | 13.5 µM (inactive) | 18.9 µM (inactive) | 16.8 µM (inactive) | 13.5 µM (inactive) | 19.7 | 21.9 µM (inactive) | 20.2 µM (inactive) | 14.8 µM (inactive) | 22.8 µM (inactive) |
